What was measured:
[1] = tested on: sub-genomic HCV RNA replicon; experiment: HCV replicon inhibition assay, luciferase reporter in Huh7 ET cells; format: cell-based; conditions: 72 h; for IC50: concentration reducing viral replication by 50%; for IC90: concentration reducing viral replication by 90%
Experimental: To support our in vitro data, the inhibition of HCV RNA replication was then measured using human hepatocarcinoma Huh7 ET cells. These cells express a sub-genomic HCV RNA replicon with a stable luciferase reporter. The replicon contains the 5′-end Internal Ribosome Entry Site (IRES) of HCV which drives the production of a firefly luciferase, ubiquitin, and neomycin phosphotransferase (Neo) fusion protein. Ubiquitin cleavage releases the luciferase and Neo proteins. The IRES element encephalomyocarditis virus controls the translation of the HCV […] proteins NS3-NS5 in the replicon. The NS3 protein cleaves the synthesized HCV polyprotein to release the mature NS3, NS4A, NS4B, NS5A and NS5B proteins that are required for HCV replication. The authentic 3′-end non-translating region of HCV is localized at the 3′-end of the replicon. As a result, the activity of the luciferase reporter is directly proportional to HCV RNA levels and positive control antiviral compounds behave comparably using either luciferase or RNA endpoints.
Human interferon α2b was used as a control.

[2] = target: WNV NS2B-NS3 proteinase; experiment: WNV NS2B-NS3 proteinase activity assay (cross-reactivity); format: biochemical, West Nile virus (strain NY99); conditions: pyroglutamic acid-Arg-Thr-Lys-Arg-7-amino-4-methylcoumarin substrate
Source text: (§1) Reagents were purchased from Sigma unless indicated otherwise. The FRET substrate Ac-DE-D(Edans)-EE-Abu-ψ-[COO]-AS-K(Dabsyl)-NH2, purified recombinant wild-type NS3/4A from HCV genotype 1b, strain HC-J4, and the mutants with the V36M, R155K, A156T, D168A and V170A resistance mutations were from AnaSpec (Fremont, CA). The NS3/4A construct represented the individual NS3 proteinase domain N-terminally fused with an NS4A co-factor and tagged with a 6xHis tag. NS3/4A was in active form and the pre-activation by pep-4A or pep4AK was not necessary. Pyroglutamic acid-Arg-Thr-Lys-Arg-7-amino-4-methylcoumarin was from Peptides International (Louisville, KY). West Nile virus NS2B-NS3 proteinase (strain NY99) was expressed, purified and refolded to restore its functional activity as described earlier. The pET15b-Den2-CF40-Gly-NS3pro 185 plasmid encoding the Dengue virus type 2 NS2B-NS3 protease was a kind gift of Dr. Subhash Vasudevan (Program in Emerging Infectious Diseases, DUKE-NUS Graduate Medical School, Singapore). DV NS2B-NS3 proteinase was expressed purified and refolded to restore its functional activity as described previously, [70]. The expression of the soluble C-terminally truncated human furin construct in Sf9 insect cells (an ovarian cell line from fall armyworm Spodoptera frugiperda; Invitrogen, Carlsbad, CA) infected with the recombinant baculovirus and purification of soluble furin from the medium were described earlier. Original human hepatocarcinoma Huh7 cells were obtained from ATCC (Manassas, VA).
(§2) The activity of furin and both WNV and DV2 NS2B-NS3 proteinases (10 nM each) was measured in triplicate in 0.2 ml 20 mM Tris-HCl buffer, pH 8.0, containing 20% glycerol and 0.005% Brij 35 (for furin – 100 mM HEPES, pH 7.5, containing 1 mM CaCl2, 1 mM β-mercaptoethanol and 0.005% Brij 35) and pyroglutamic acid-Arg-Thr-Lys-Arg-7-amino-4-methylcoumarin (10 µM) as a substrate (λex = 360 nm; λem = 465 nm) as described earlier.
(§3) To measure the inhibitory potency of the compounds, their increasing concentrations were pre-incubated with the individual proteinases in the corresponding buffer for 30 min at ambient temperature. At least, 7–9 different concentrations were used for each inhibitor. The residual activity of the enzymes was then measured as above. The IC50 values of the inhibitory compounds were calculated by determining the concentrations of the compounds needed to inhibit 50% of the enzyme activity against the peptide substrate. GraphPad Prism was used as fitting software.

[3] = target: T1, furin (Homo sapiens, UniProt P09958); experiment: Furin activity assay (cross-reactivity); format: biochemical; conditions: pyroglutamic acid-Arg-Thr-Lys-Arg-7-amino-4-methylcoumarin substrate
T1 construct: soluble C-terminally truncated human furin construct in Sf9 insect cells; made in house; host or cells: Sf9 insect cells (baculovirus)
Source text: as §1, §2, §3

[4] = tested on: NS3/4A V170A; experiment: NS3/4A activity assay, V170A mutant; format: biochemical, HCV genotype 1b, strain HC-J4; conditions: for NS3/4A V170A FC: fold change in IC50 for the mutant compared to WT; for IC50: recombinant V170A mutant, FRET peptide substrate
Source text: as §1, with “NS3/4A was in active form and the pre-activation by pep-4A or pep4AK was not necessary.” left out
The NS3/4A activity assay was performed at 37°C in triplicate in wells of a 96-well plate in 0.2 ml 50 mM HEPES, pH 7.5, containing 100 mM NaCl, 10 mM DTT, 20% glycerol, the Ac-DE-D(Edans)-EE-Abu-ψ-[COO]-AS-K(Dabsyl)-NH2 substrate (10 µM) and the NS3/4A enzyme (10 nM). Reaction velocity was monitored continuously at λex = 355 nm and λem = 500 nm for 10 min using a Spectramax Gemini EM fluorescence spectrophotometer (Molecular Devices, Sunnyvale, CA) and the initial rate of reaction v was recorded for each reaction. […] Compound stock solutions (10 mM) were made in 100% DMSO. Stocks were then diluted using the assay buffer. As a result, the final DMSO concentration was always below 1% in the assay reactions.
as §3

[5] = target: T2, DV2 NS2B-NS3 proteinase (Dengue virus type 2, UniProt P29990); experiment: DV2 NS2B-NS3 proteinase activity assay (cross-reactivity); format: biochemical; conditions: pyroglutamic acid-Arg-Thr-Lys-Arg-7-amino-4-methylcoumarin substrate
T2 construct: The pET15b-Den2-CF40-Gly-NS3pro 185 plasmid encoding the Dengue virus type 2 NS2B-NS3 protease; made in house
Source text: as §1, §2, §3

T1 sequence (P09958 108-715 limits assumed): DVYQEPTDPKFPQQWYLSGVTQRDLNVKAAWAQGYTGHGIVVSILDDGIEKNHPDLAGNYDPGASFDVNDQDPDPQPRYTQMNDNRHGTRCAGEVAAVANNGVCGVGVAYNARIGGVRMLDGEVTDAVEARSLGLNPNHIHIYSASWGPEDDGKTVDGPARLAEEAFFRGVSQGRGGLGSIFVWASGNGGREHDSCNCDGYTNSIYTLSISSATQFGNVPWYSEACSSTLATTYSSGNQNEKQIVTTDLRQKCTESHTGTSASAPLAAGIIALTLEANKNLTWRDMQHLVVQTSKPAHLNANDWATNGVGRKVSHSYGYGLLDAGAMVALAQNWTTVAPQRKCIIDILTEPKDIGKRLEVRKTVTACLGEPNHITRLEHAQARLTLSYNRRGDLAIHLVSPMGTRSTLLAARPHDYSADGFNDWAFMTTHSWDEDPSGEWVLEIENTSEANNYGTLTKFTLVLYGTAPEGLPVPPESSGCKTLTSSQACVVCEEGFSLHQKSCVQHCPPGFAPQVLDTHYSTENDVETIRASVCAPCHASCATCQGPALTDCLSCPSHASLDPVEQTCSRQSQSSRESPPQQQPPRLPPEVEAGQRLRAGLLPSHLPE
T2 sequence (P29990 1476-1653): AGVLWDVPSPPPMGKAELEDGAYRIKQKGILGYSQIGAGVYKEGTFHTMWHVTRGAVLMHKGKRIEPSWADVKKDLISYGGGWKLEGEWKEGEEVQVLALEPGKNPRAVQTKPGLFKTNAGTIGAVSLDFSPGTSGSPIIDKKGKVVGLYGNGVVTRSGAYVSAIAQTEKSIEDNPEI

Row | SMILES | IC50 [1] | IC90 [1] | IC50 [2] | IC50 [3] | NS3/4A V170A FC [4] | IC50 [4] | IC50 [5]
1 | Cc1n[nH]c(=S)n1Nc1nc(SCc2ccccc2)nc2n[nH]c(Cc3nn[nH]n3)c12 [Compound 3] | > 100 µM | > 100 µM | 18.2 µM | > 100 µM | 5.5 | 1.97 µM | 34.5 µM
2 | O=C(Nc1ccccc1)c1cc(S(=O)(=O)Nc2nc3ncccc3[nH]2)c(SSc2cc(Cl)c(C(=O)Nc3ccccc3)cc2S(=O)(=O)Nc2nc3ncccc3[nH]2)cc1Cl [Compound 1] | > 100 µM | > 100 µM | 21.9 µM | > 100 µM | 2.2 | 0.4 µM | 19.7 µM
3 | S=c1[nH]nc(Nc2nc(SCc3ccccc3)nc3n[nH]c(Cc4nn[nH]n4)c23)s1 [Compound 6] | > 100 µM | > 100 µM | 12.7 µM | 66.8 µM | 0.98 | 0.93 µM | 20.6 µM
4 | Oc1ccccc1-c1nnc2sc3c(Cl)c4nn5c(-c6ccccc6O)nnc5sc4c(Cl)c3nn12 [Compound 4] | 28 µM | 99.4 µM | 3.7 µM | 12.8 µM | 2.2 | 0.8 µM | 14.3 µM
5 | S=c1[nH]n2c(COc3cc(Cl)c(OCc4nnc5sc(=S)[nH]n45)cc3Cl)nnc2s1 [Compound 7] | 9.95 µM | 54.4 µM | 39.1 µM | > 100 µM | 1.2 | 1.52 µM | > 100 µM
6 | Clc1ccc(Nc2nc(SCc3ccccc3)nc3n[nH]c(Cc4nc5ccccc5s4)c23)cc1 [Compound 5] | > 100 µM | > 100 µM | 23.7 µM | > 100 µM | 16.6 | 6.29 µM | 49.4 µM
7 | COc1cc(C2C(C(=O)Nc3ccc(Cl)c(Cl)c3)=C(C)NC(C)=C2C(=O)Nc2ccc(Cl)c(Cl)c2)ccc1O [Compound 8] | 13.6 µM | 19.2 µM | 21.8 µM | 27 µM | 1.5 | 2.92 µM | 38.8 µM
8 | Clc1ccc(OCc2nn3c(CCc4nnc5sc(COc6ccc(Cl)cc6)nn45)nnc3s2)cc1 [Compound 2] | 10 µM | 25.2 µM | > 100 µM | > 100 µM | 6 | 1.8 µM | > 100 µM

Source: article PMC3388044, “Probing of Exosites Leads to Novel Inhibitor Scaffolds of HCV NS3/4A Proteinase” (PLoS ONE, 2012)
